ChEMBL document CHEMBL1770145, “Synthesis of 5(6)-dihydro-OSW-1 analogs bearing three kinds of disaccharides linking at 15-hydroxy and their antitumor activities” (Bioorg Med Chem Lett, 2011)

How the values were obtained:
Format in all cases: functional, cell-based
Bel-7402 [1] = assay: Cytotoxicity against human Bel7402 cells
MCF7 [2] = assay: Cytotoxicity against human MCF7 cells
AGS = assay: Cytotoxicity against human AGS cells
Bel-7402 [3] = assay: Cytotoxicity against human Bel7402 cells by MTT assay
BGC-823 = assay: Cytotoxicity against human BGC823 cells by MTT assay
A2780 = assay: Cytotoxicity against human A2780 cells by MTT assay
MCF7 [4] = assay: Cytotoxicity against human MCF7 cells by MTT assay
A549 = assay: Cytotoxicity against human A549 cells by MTT assay
HCT-8 = assay: Cytotoxicity against human HCT8 cells by MTT assay
KETR3 = assay: Cytotoxicity against human Ketr3 cells by MTT assay

SMILES: COc1ccc(C(=O)O[C@H]2[C@H](O[C@@H]3[C@@H](OC(C)=O)[C@H](O[C@H]4C[C@H]5[C@@H]6CCC7C[C@@H](O)CC[C@]7(C)[C@H]6CC[C@]5(C)[C@@]4(O)[C@H](C)C(=O)CCC(C)C)OC[C@@H]3O)OC[C@@H](O)[C@@H]2O)cc1 (stereo partly specified)
- IC50 (Bel-7402 [1]): 0.025 µM
- IC50 (MCF7 [2]): 0.029 µM
- IC50 (AGS): 0.71 µM

SMILES: COc1ccc(C(=O)O[C@H]2[C@H](O[C@H]3CO[C@@H](O[C@H]4CC([C@H](C)C(=O)CC[C@@H](C)CO)[C@@]5(C)CC[C@H]6[C@@H](CC[C@H]7C[C@@H](O)CC[C@@]76C)[C@H]45)[C@H](OC(C)=O)[C@H]3O)OC[C@@H](O)[C@@H]2O)cc1 (stereo partly specified)
- IC50 (Bel-7402 [3]): > 10 µM
- IC50 (BGC-823): > 10 µM
- IC50 (A2780): > 10 µM
- IC50 (MCF7 [4]): > 10 µM
- IC50 (A549): > 10 µM
- IC50 (HCT-8): > 10 µM
- IC50 (KETR3): > 10 µM

SMILES: C[C@@H](CO)CCC(=O)[C@@H](C)C1C[C@@H](O[C@H]2O[C@H](CO)[C@@H](O)[C@H](O)[C@H]2O[C@@H]2O[C@@H](C)[C@H](O)[C@@H](O)[C@H]2O)[C@H]2[C@@H]3CC[C@H]4C[C@@H](O)CC[C@]4(C)[C@H]3CC[C@]12C (stereo partly specified)
- IC50 (Bel-7402 [3]): > 10 µM
- IC50 (BGC-823): > 10 µM
- IC50 (A2780): > 10 µM
- IC50 (MCF7 [4]): > 10 µM
- IC50 (A549): > 10 µM
- IC50 (HCT-8): > 10 µM
- IC50 (KETR3): > 10 µM

SMILES: COc1ccc(C(=O)O[C@H]2[C@H](O[C@@H]3[C@@H](OC(C)=O)[C@H](O[C@H]4CC([C@H](C)C(=O)CC[C@@H](C)CO)[C@@]5(C)CC[C@H]6[C@@H](CC[C@H]7C[C@@H](O)CC[C@@]76C)[C@H]45)OC[C@@H]3O)OC[C@@H](O)[C@@H]2O)cc1 (stereo partly specified)
- IC50 (Bel-7402 [3]): > 10 µM
- IC50 (BGC-823): > 10 µM
- IC50 (A2780): > 10 µM
- IC50 (MCF7 [4]): > 10 µM
- IC50 (A549): > 10 µM
- IC50 (HCT-8): > 10 µM
- IC50 (KETR3): > 10 µM

SMILES: COc1ccc(C(=O)O[C@H]2[C@H](O[C@@H]3[C@@H](OC(C)=O)[C@H](O[C@@H]4CC([C@H](C)C(=O)CC[C@@H](C)CO)[C@@]5(C)CC[C@H]6[C@@H](CC[C@H]7C[C@@H](O)CC[C@@]76C)[C@H]45)OC[C@@H]3O)OC[C@@H](O)[C@@H]2O)cc1 (stereo partly specified)
- IC50 (Bel-7402 [3]): 0.522 µM
- IC50 (BGC-823): 0.283 µM
- IC50 (A2780): 0.545 µM
- IC50 (MCF7 [4]): 0.499 µM
- IC50 (A549): 0.843 µM
- IC50 (HCT-8): 0.1 µM
- IC50 (KETR3): 0.1 µM

SMILES: COc1ccc(C(=O)O[C@H]2[C@H](O[C@H]3CO[C@@H](O[C@@H]4CC([C@H](C)C(=O)CC[C@@H](C)CO)[C@@]5(C)CC[C@H]6[C@@H](CC[C@H]7C[C@@H](O)CC[C@@]76C)[C@H]45)[C@H](OC(C)=O)[C@H]3O)OC[C@@H](O)[C@@H]2O)cc1 (stereo partly specified)
- IC50 (Bel-7402 [3]): > 10 µM
- IC50 (BGC-823): > 10 µM
- IC50 (A2780): > 10 µM
- IC50 (MCF7 [4]): > 10 µM
- IC50 (A549): > 10 µM
- IC50 (HCT-8): > 10 µM
- IC50 (KETR3): > 10 µM

SMILES: C[C@@H](CO)CCC(=O)[C@@H](C)C1C[C@H](O[C@H]2O[C@H](CO)[C@@H](O)[C@H](O)[C@H]2O[C@@H]2O[C@@H](C)[C@H](O)[C@@H](O)[C@H]2O)[C@H]2[C@@H]3CC[C@H]4C[C@@H](O)CC[C@]4(C)[C@H]3CC[C@]12C (stereo partly specified)
- IC50 (Bel-7402 [3]): > 10 µM
- IC50 (BGC-823): > 10 µM
- IC50 (A2780): > 10 µM
- IC50 (MCF7 [4]): > 10 µM
- IC50 (A549): > 10 µM
- IC50 (HCT-8): > 10 µM
- IC50 (KETR3): > 10 µM

SMILES: C[C@@H](CO)CCC(=O)[C@@H](C)C1C[C@H](O[C@@H]2O[C@H](CO)[C@@H](O)[C@H](O)[C@H]2O[C@@H]2O[C@@H](C)[C@H](O)[C@@H](O)[C@H]2O)[C@H]2[C@@H]3CC[C@H]4C[C@@H](O)CC[C@]4(C)[C@H]3CC[C@]12C (stereo partly specified)
- IC50 (Bel-7402 [3]): > 10 µM
- IC50 (BGC-823): > 10 µM
- IC50 (A2780): > 10 µM
- IC50 (MCF7 [4]): > 10 µM
- IC50 (A549): > 10 µM
- IC50 (HCT-8): > 10 µM
- IC50 (KETR3): > 10 µM

SMILES: C[C@@H](CO)CCC(=O)[C@@H](C)C1C[C@@H](O[C@@H]2O[C@H](CO)[C@@H](O)[C@H](O)[C@H]2O[C@@H]2O[C@@H](C)[C@H](O)[C@@H](O)[C@H]2O)[C@H]2[C@@H]3CC[C@H]4C[C@@H](O)CC[C@]4(C)[C@H]3CC[C@]12C (stereo partly specified)
- IC50 (Bel-7402 [3]): > 10 µM
- IC50 (BGC-823): > 10 µM
- IC50 (A2780): > 10 µM
- IC50 (MCF7 [4]): > 10 µM
- IC50 (A549): > 10 µM
- IC50 (HCT-8): > 10 µM
- IC50 (KETR3): > 10 µM

SMILES: C[C@@H]1CC[C@@]2(OC1)O[C@H]1C[C@H]3[C@@H]4CC=C5C[C@@H](O[C@@H]6O[C@H](CO)[C@@H](O[C@@H]7O[C@@H](C)[C@H](O)[C@@H](O)[C@H]7O)[C@H](O)[C@H]6O[C@@H]6O[C@@H](C)[C@H](O)[C@@H](O)[C@H]6O)CC[C@]5(C)[C@H]4CC[C@]3(C)[C@H]1[C@@H]2C [DIOSCIN]
- IC50 (Bel-7402 [3]): 0.93 µM
- IC50 (BGC-823): 0.268 µM
- IC50 (A2780): 0.581 µM
- IC50 (MCF7 [4]): 0.879 µM
- IC50 (A549): 0.454 µM
- IC50 (HCT-8): 0.351 µM
- IC50 (KETR3): 0.447 µM
